From patent publication US20250108135A1, “TERAGNOSTIC METHOD FOR CANCER PATIENTS” (priority 2022, published 2025)

Experiments:
glioblastoma = assay: Response to 64CuCl2 treatment in glioblastoma patients (MRI, RANO criteria); assay type: in vivo, human
Procedure: A glioblastoma patient of 70 kg that belongs to the class of recurrent glioblastoma. The patient underwent surgery, radiotherapy and chemotherapy and after that experienced recurrence. Standard treatment are not effective in this setting therefore the patient received a diagnostic dose of ^64CuCl2 equal to 925 MBq. After 1 h from administration a PET/CT scan is performed. The patient resulted positive for copper lesion at the diagnostic dose and started treatment
The treatment with ^64CuCl2 (2,775 MBq/mL) for intravenous use by injection followed this scheme and the patient received once a week: • 1st dose=4,810 MBq, 2nd dose=4,810 MBq, 3rd dose=4,810 MBq, 4th dose=4,810 MBq, 5th dose=4,810 MBq, 6th dose=4,810 MBq, 7th dose=4,810 MBq
The patient (71 Kg) underwent surgery, radiotherapy and chemotherapy and after that experienced recurrence. Standard treatments are not effective in this setting therefore the patient received a diagnostic dose of ^64CuCl2 equal to 925 MBq. After 1 h from administration a PET/CT scan is performed. The patient resulted positive for copper lesion at the diagnostic dose and started treatment (^64CuCl2 277 MBq/mL for intravenous by infusion).
The treatment followed this scheme and the patient received once a week: • 1st dose=1,850 MBq, 2nd dose=2,460 MBq, 3rd dose=2,922 MBq, 4th dose=3,292 MBq, 5th dose=3,606 MBq, 6th dose=3,865 MBq, 7th dose=4,068 MBq.
The phase I clinical trial on glioblastoma is the first study evaluating preliminary efficacy of ^64CuCl2 2,775 MBq/mL as therapeutic agent. This determination was performed on 10 patients, at the end of the 7th therapy dose, at 90th day (after 3 months of the last treatment) and whenever possible at 180th day to obtain a wider evaluation of the disease status. Data cut-off was performed after 5 patients. The response to treatment, in term of anti-tumor activity of ^64CuCl2, was measured by MRI, assessed according to the RANO criteria (Response Assessment in Neuro-Oncology, see Wen PY et al.) and defined as complete response (disappearance of tumor) partial response (reduction) and stable disease (non-progression of GBM). Among these patients 4 resulted responders and 1 non-responder. […] Tumor volume reduction ≥50% was also shown in two cases after three months from the last treatment, and in one patient after 6 months from the last treatment.

[1] = Effective dose of the diagnostic 64CuCl2 administration; assay type: in vivo, human; details: diagnostic dose 370-925 MBq
From the text: Patients with tumor received ^64CuCl2 at a dose between 370-925 MBq to ensure appropriate image quality. The mean effective dose for ^64CuCl2 calculated is 20 mSv per exam, which is aligned with the ones from the conventional PET imaging.

U87MG = assay: Cell survival (cell-killing effect) at different radioconcentrations; assay type: cell-based
Procedure: (§1) The capability resulted improved at a radioconcentration higher than 925 MBq/mL compared to lower concentrations. This is the first time that the impact of the drug radioconcentration has been correlated to the cell-killing effect for the translation to humans. The inventor performed internalization and survival studies on different cancer cell lines (U87MG [glioblastoma], PC-3[prostate cancer], CAMA1 [breast cancer], C8161[melanoma], HT-29[colorectal cancer]), A549 [lung cancer] applying the same amount (dose) of radioactivity (eg. 10 MBq), but at different radioconcentrations, e.g. 2,775 MBq/mL vs. 1,850 MBq/mL, vs. 925MBq/mL.
(§2) This effect of the radioconcentration could have a great impact on patients for the optimization of treatment. In fact, in consideration of the mechanism through which ^64Cu reaches the tumor cell, the different radioconcentrations, that is to say “the number of nuclear disintegrations per unit time in a given amount of the preparation”, can influence the biodistribution in vivo. […]
Survival curve of U87MG treated with the same dosage range but at three different concentrations C1=925 MBq/mL, C2=1,850 MBq/mL, C3=2,775 MBq/mL. Value are expressed as mean ±SEM. […]

[2] = Biodistribution, pharmacokinetics, dosimetry and safety in glioblastoma patients; assay type: in vivo, human
Procedure: Six glioblastoma patients were evaluated for safety profile and the study of biodistribution was conducted including evaluation of PET/CT scans after first daily dose administration of radiopharmaceutical composition having a radioconcentration of 2,775 MBq/mL (day 0), at different time points 1 h, 4 h, 24 h, 48 h after injection and pharmacokinetic (PK) radioactivity on blood samples at different time points of administration.

[3] = system: U87MG, PC-3, CAMA1, C8161, HT-29, A549 cancer cell lines; assay: 64CuCl2 tumor cell uptake (internalization) at different radioconcentrations; assay type: cell-based; details: 4 h after treatment; same dose of radioactivity; higher radioconcentrations (2,775 and 1,850 MBq/mL) compared to the lowest (925 MBq/mL); all the cell lines
Procedure: as §1, §2
FIG. 1—Impact of different radioconcentrations on tumor cell uptake ^64CuCl2 cell uptake in different tumor cell lines U87MG, PC-3, CAMA1, C8161, HT-29. Cell uptake was evaluated treating cells at the same dosage (15 MBq/dish 100 mm), but at three different radioconcentrations C1=925 MBq/mL, C2=1,850 MBq/mL, C3=2,775 MBq/mL. Values are expressed as mean ±SEM.

U-87 GM cells = details: nude mice implanted with U-87 GM cells; cited from earlier work
B16F10 or A375M tumors = details: vs control group, cited from earlier work
[4] = system: PCa spheroids (derived from 22RV1, DU145, and LNCaP cells); details: in vitro; cited from earlier work
prostate cancer = assay: Response to 64CuCl2 treatment in prostate cancer patients (PET/CT); assay type: in vivo, human
Procedure: The patient at initial diagnosis had local tumor, and after surgery (radical prostatectomy) they underwent radiotherapy and chemotherapy. However, they experienced local recurrence plus a bone metastatic lesion. After receiving all standard treatments, the patient received a diagnostic dose of ^64CuCl2 equal to 925 MBq. After 1 h from administration a PET/CT scan is performed. The patient resulted positive for copper lesion at the diagnostic dose and started treatment. […] The PET/CT acquired the same day of the 4th therapeutic administration and the PET/CT acquired before treatment beginning were analyzed by two independent observers (a third observer expressed another evaluation only in case of discrepancies).

[5] = system: 5 human neoplastic cell lines (ovarian cancer, head and neck, neuroendocrine lung carcinoma, colorectal cancer, glioblastoma); details: microPET after administration of 64CuCl2; cited from earlier work
[6] = system: Human GBM cell lines (LI) PARI, ADF and T98G; details: time and dose dependent; cited from earlier work
[7] = phase I glioblastoma, 2,775 MBq/mL, data cut-off after 5 patients, 7 treatments
[8] = six glioblastoma patients, 2,775 MBq/mL

[Cl][Cu][Cl] [^64CuCl2, Copper Chloride]
patients with tumor volume reduction ≥50% (glioblastoma; 6 months from the last treatment): one | patients with reduction of tumor volume ≥50% compared to baseline MRI (glioblastoma; day 42 evaluation): one | patients with stable disease (glioblastoma; day 42 evaluation, responder patients): 3 patients | patients with stable disease (glioblastoma; day 90): 2 patients | number of non-responders (glioblastoma; [7]): 1 | number of responders (glioblastoma; [7]): 4 | response to the treatment (glioblastoma; recurrent glioblastoma patient (71 Kg), 277 MBq/mL i.v. infusion, 7 increasing doses 1,850-4,068 MBq once a week): responder | cases with tumor volume reduction ≥50% (glioblastoma; three months from the last treatment): two | patients with stable disease (glioblastoma; up to six months after treatment): one | mean effective dose per exam [1]: 20 mSv | cell-killing effect (U87MG; 24 h after treatment, 2,775 MBq/mL, U87MG survival curve): increased cell-killing effect | improved cell killing-effect compared to C1 (U87MG; C3=2,775 MBq/mL vs C1=925 MBq/mL at D4=1.7 MBq and D5=3.4 MBq): about 30% | treatment related toxicities associated to liver/kidney and red marrow distribution ([2]; glioblastoma patients): No treatment related toxicities were registered | biodistribution (organ uptake) [2, 8]: significant uptake in the liver (as expected) followed by kidney and L2-L4 regions | effective dose, median [2, 8]: 26.08 mSv | 64Cu uptake over time (pharmacokinetic profile) ([2]; six glioblastoma patients, 2,775 MBq/mL, PET/CT 1 h, 4 h, 24 h, 48 h after injection): increases up to 4 h post-injection and decreased thereafter | cell uptake [3]: significantly greater | tumor volume, in some cases (U-87 GM cells): complete regression | tumor growth (B16F10 or A375M tumors; B16F10 and A375M models, one dose about 74 MBq): much slower than that of the control group | survival (B16F10 or A375M tumors; mice bearing B16F10 or A375M tumors): significantly improved survival | growth of spheroids [4]: reduce their growth | volume of lesions (PET/CT) (prostate cancer; five prostate cancer patients, after 4 administrations, 2,775 MBq/mL solution for injection): a reduction or a non-progression | tumor lesions on the bone, PET/CT before and after treatment (prostate cancer; metastatic prostate cancer patient, 2,775 MBq/mL injection, 7 doses of 4,810 MBq once a week): reduction of the tumor lesions on the bone | uptake of 64Cu2+ by neoplastic tissues [5]: significant uptake | modulation of cell viability [6]: dose dependent
